What is called inhibition is the percentage by which the read-out fell short of the control.

The structures appear in SMILES notation.

The record followed here is patent publication US7851474B2, “Dipiperazinyl ketones and related analogues” (Neurogen Corporation, priority 2005, dated 2010).

T1 sequence (Q9Y5N1 with tags, fused parts or gaps E19D): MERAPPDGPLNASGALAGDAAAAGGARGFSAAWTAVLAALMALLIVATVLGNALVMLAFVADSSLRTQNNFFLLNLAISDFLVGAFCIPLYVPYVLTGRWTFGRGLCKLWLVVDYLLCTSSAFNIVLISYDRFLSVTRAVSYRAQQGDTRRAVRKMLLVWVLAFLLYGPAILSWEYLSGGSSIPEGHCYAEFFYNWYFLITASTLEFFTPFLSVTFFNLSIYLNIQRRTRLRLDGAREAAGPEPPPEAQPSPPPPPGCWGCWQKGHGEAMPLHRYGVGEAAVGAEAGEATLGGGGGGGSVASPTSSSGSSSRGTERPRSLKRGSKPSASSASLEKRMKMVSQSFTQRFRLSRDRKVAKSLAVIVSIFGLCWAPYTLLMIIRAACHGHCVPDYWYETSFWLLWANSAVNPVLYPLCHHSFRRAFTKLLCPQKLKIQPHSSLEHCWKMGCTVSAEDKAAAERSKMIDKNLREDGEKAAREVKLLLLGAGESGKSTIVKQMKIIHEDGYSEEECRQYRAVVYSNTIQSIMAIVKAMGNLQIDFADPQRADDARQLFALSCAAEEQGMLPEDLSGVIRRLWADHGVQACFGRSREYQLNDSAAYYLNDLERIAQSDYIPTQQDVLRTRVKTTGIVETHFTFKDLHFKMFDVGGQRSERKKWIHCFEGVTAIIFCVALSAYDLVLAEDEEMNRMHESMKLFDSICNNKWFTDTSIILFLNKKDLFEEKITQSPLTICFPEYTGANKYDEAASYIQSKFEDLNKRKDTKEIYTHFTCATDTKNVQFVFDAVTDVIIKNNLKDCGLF

The first experiment concerns the target T1, chimeric human H3 receptor (Homo sapiens, UniProt Q9Y5N1, E19D).
T1 construct: made in house; host or cells: Sf9 insect cells (baculovirus infection); P2 membrane preparation
Description: Chimeric human H3 receptor screening GTP binding assay (inhibition of histamine-stimulated GTP-gamma35S binding, Example 8). The format is biochemical. To be noted: 1 h; "+" in Ki of Table II; assay of Example 8; read-out: percent inhibition of agonist-induced GTP-gammaS binding to H3. The essentials:
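Data are percent inhibition of the 1 μM histamine-stimulated GTP-gamma35S (125 pM) binding, after non-specific binding (10 uM GTP-gammaS) is subtracted. Test compound at 4 μM. Incubation was 60 min at room temperature with Sf9 membranes bearing receptor plus G-protein subunits, buffer pH 7.4 with 10 μM GDP, and filtration read-out.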
As for `CCOc1ccccc1/C=C/C(=O)N1CCN(CC(=O)N2CCN(C3CCC3)CC2)CC1` [Compound 523, 1-cyclobutyl-4-({4-[(2E)-3-(2-ethoxyphenyl)prop-2-enoyl]piperazin-1-yl}acetyl)piperazine], the inhibition at 4 µM is > 90%. Same read-out and setting: the result for `Cc1cccc(CC(=O)N2CCN(CC(=O)N3CCN(C4CCC4)CC3)CC2)c1` [Compound 555, 1-cyclobutyl-4-({4-[(3-methylphenyl)acetyl]piperazin-1-yl}acetyl)piperazine] reads > 90%; that for `Cc1cccc(OCC(=O)N2CCN(CC(=O)N3CCN(C4CCC4)CC3)CC2)c1` [Compound 554, 1-cyclobutyl-4-({4-[(3-methylphenoxy)acetyl]piperazin-1-yl}acetyl)piperazine], > 90%. Same read-out and setting: as for `Cc1ccc(OCC(=O)N2CCN(CC(=O)N3CCN(C4CCC4)CC3)CC2)c(C)c1` [Compound 508, 1-cyclobutyl-4-({4-[(2,4-dimethylphenoxy)acetyl]piperazin-1-yl}acetyl)piperazine], the figure is > 90%. The same measure, in the same setting: the result for `CCCc1c(C(=O)N2CCN(CC(=O)N3CCN(C4CCC4)CC3)CC2)cnn1-c1ccc(Cl)cc1` [Compound 472, 1-{[1-(4-chlorophenyl)-5-propyl-1H-pyrazol-4-yl]carbonyl}-4-[2-(4-cyclobutylpiperazin-1-yl)-2-oxoethyl]piperazine] reads > 90%; that for `Cc1ccc(C(C(=O)N2CCN(CC(=O)N3CCN(C4CCC4)CC3)CC2)c2ccccc2)cc1` (stereo not shown) [Compound 565, 1-cyclobutyl-4-({4-[(4-methylphenyl)(phenyl)acetyl]piperazin-1-yl}acetyl)piperazine], > 90%. With `O=C(Cc1c(F)cccc1F)N1CCN(CC(=O)N2CCN(C3CCC3)CC2)CC1` [Compound 512, 1-cyclobutyl-4-({4-[(2,6-difluorophenyl)acetyl]piperazin-1-yl}acetyl)piperazine], the inhibition at 4 µM is > 90%. For the molecule `COc1ccc(/C=C/C(=O)N2CCN(CC(=O)N3CCN(C4CCC4)CC3)CC2)c(OC)c1` [Compound 520, 1-cyclobutyl-4-({4-[(2E)-3-(2,4-dimethoxyphenyl)prop-2-enoyl]piperazin-1-yl}acetyl)piperazine], the inhibition at 4 µM was > 90%. Same read-out and setting: the result for `Cc1nnsc1C(=O)N1CCN(CC(=O)N2CCN(C3CCC3)CC2)CC1` [Compound 564, 1-cyclobutyl-4-({4-[(4-methyl-1,2,3-thiadiazol-5-yl)carbonyl]piperazin-1-yl}acetyl)piperazine] reads > 90%; that for `COc1cccc(/C=C/C(=O)N2CCN(CC(=O)N3CCN(C4CCC4)CC3)CC2)c1OC` [Compound 517, 1-cyclobutyl-4-({4-[(2E)-3-(2,3-dimethoxyphenyl)prop-2-enoyl]piperazin-1-yl}acetyl)piperazine], > 90%. The same measure, in the same setting: as for `CC(Oc1ccc(Cl)cc1Cl)C(=O)N1CCN(CC(=O)N2CCN(C3CCC3)CC2)CC1` (stereo not shown) [Compound 572, 1-cyclobutyl-4-({4-[2-(2,4-dichlorophenoxy)propanoyl]piperazin-1-yl}acetyl)piperazine], the figure is > 90%.

The same experiment, now with this note: 1 h; Table II "Ki", symbol "+": assay described in Example 8; read-out: percent inhibition of agonist-induced GTP-gammaS binding to H3.
Regarding `CC(C)c1ccc(C(=O)N2CCN(CC(=O)N3CCN(C4CCC4)CC3)CC2)cc1` [Compound 777, 1-cyclobutyl-4-{[4-(4-isopropylbenzoyl)piperazin-1-yl]acetyl}piperazine], the inhibition at 4 µM is > 90%.

As to `CNc1ccccc1C(=O)N1CCN(CC(=O)N2CCN(C3CCC3)CC2)CC1` [Compound 891, 2-({4-[2-(4-cyclobutylpiperazin-1-yl)-2-oxoethyl]piperazin-1-yl}carbonyl)-N-methylaniline], the inhibition at 4 µM was > 90%. Still for that read-out and setting: the result for `Cc1cnc(C(=O)N2CCN(CC(=O)N3CCN(C4CCC4)CC3)CC2)cn1` [Compound 894, 2-({4-[2-(4-cyclobutylpiperazin-1-yl)-2-oxoethyl]piperazin-1-yl}carbonyl)-5-methylpyrazine] reads > 90%.

Staying with this experiment, now noted: 1 h; Table II, "+" in the column headed Ki; assay of Example 8; read-out: percent inhibition of agonist-induced GTP-gammaS binding to H3.
For `COc1ccc(OC)c(C(=O)N2CCN(CC(=O)N3CCN(C4CCC4)CC3)CC2)c1` [Compound 686, 1-cyclobutyl-4-{[4-(2,5-dimethoxybenzoyl)piperazin-1-yl]acetyl}piperazine], the inhibition at 4 µM is > 90%.

In the case of `O=C(/C=C/c1ccccc1C(F)(F)F)N1CCN(CC(=O)N2CCN(C3CCC3)CC2)CC1` [Compound 614, 1-cyclobutyl-4-[(4-{(2E)-3-[2-(trifluoromethyl)phenyl]prop-2-enoyl}piperazin-1-yl)acetyl]piperazine], the inhibition at 4 µM is > 90%. Take `COc1cc(OC)cc(C(=O)N2CCN(CC(=O)N3CCN(C4CCC4)CC3)CC2)c1` [Compound 741, 1-cyclobutyl-4-{[4-(3,5-dimethoxybenzoyl)piperazin-1-yl]acetyl}piperazine]: the inhibition at 4 µM was > 90%. For the molecule `CC(Oc1ccc(OC(F)(F)F)cc1)C(=O)N1CCN(CC(=O)N2CCN(C3CCC3)CC2)CC1` (stereo not shown) [Compound 637, 1-cyclobutyl-4-[(4-{2-[4-(trifluoromethoxy)phenoxy]propanoyl}piperazin-1-yl)acetyl]piperazine], the inhibition at 4 µM is > 90%. On the same count and under the same terms, as for `Cc1cc(C(=O)N2CCN(CC(=O)N3CCN(C4CCC4)CC3)CC2)oc1C` [Compound 766, 1-cyclobutyl-4-{[4-(4,5-dimethyl-2-furoyl)piperazin-1-yl]acetyl}piperazine], the figure is > 90%; as for `CCCOc1ccccc1C(=O)N1CCN(CC(=O)N2CCN(C3CCC3)CC2)CC1` [Compound 722, 1-cyclobutyl-4-{[4-(2-propoxybenzoyl)piperazin-1-yl]acetyl}piperazine], > 90%. On the same count and under the same terms, as for `O=C(COc1ccc(OC(F)(F)F)cc1)N1CCN(CC(=O)N2CCN(C3CCC3)CC2)CC1` [Compound 629, 1-cyclobutyl-4-[(4-{[4-(trifluoromethoxy)phenoxy]acetyl}piperazin-1-yl)acetyl]piperazine], the figure is > 90%; as for `Cc1oc(-c2ccccc2)cc1C(=O)N1CCN(CC(=O)N2CCN(C3CCC3)CC2)CC1` [Compound 713, 1-cyclobutyl-4-{[4-(2-methyl-5-phenyl-3-furoyl)piperazin-1-yl]acetyl}piperazine], > 90%; as for `O=C(CN1CCN(C(=O)c2cc(Cl)ccc2Cl)CC1)N1CCN(C2CCC2)CC1` [Compound 681, 1-cyclobutyl-4-{[4-(2,5-dichlorobenzoyl)piperazin-1-yl]acetyl}piperazine], > 90%. The same measure, in the same setting: as for `O=C(CN1CCN(C(=O)C2COc3ccccc3O2)CC1)N1CCN(C2CCC2)CC1` (stereo not shown) [Compound 668, 1-cyclobutyl-4-{[4-(2,3-dihydro-1,4-benzodioxin-2-ylcarbonyl)piperazin-1-yl]acetyl}piperazine], the figure is > 90%. For `O=C(Cc1ccc(C(F)(F)F)cc1)N1CCN(CC(=O)N2CCN(C3CCC3)CC2)CC1` [Compound 631, 1-cyclobutyl-4-[(4-{[4-(trifluoromethyl)phenyl]acetyl}piperazin-1-yl)acetyl]piperazine], the inhibition at 4 µM is > 90%. Same read-out and setting: the result for `COc1ccc(C(=O)N2CCN(CC(=O)N3CCN(C4CCC4)CC3)CC2)cc1F` [Compound 748, 1-cyclobutyl-4-{[4-(3-fluoro-4-methoxybenzoyl)piperazin-1-yl]acetyl}piperazine] reads > 90%.

Still in this experiment, the particulars now being: 1 h; assay described in Example 8; symbol + in column headed Ki of Table II; read-out: percent inhibition of agonist-induced GTP-gammaS binding to H3.
For the molecule `O=C(CN1CCN(C(=O)c2ccccc2Cl)CC1)N1CCN(C2CCC2)CC1` [Compound 277, 1-(2-chlorobenzoyl)-4-[2-(4-cyclobutylpiperazin-1-yl)-2-oxoethyl]piperazine], the inhibition at 4 µM is > 90%. On the same count and under the same terms, the result for `O=C(CN1CCN(C(=O)c2cncc(Br)c2)CC1)N1CCN(C2CCC2)CC1` [Compound 411, 1-[(5-bromopyridin-3-yl)carbonyl]-4-[2-(4-cyclobutylpiperazin-1-yl)-2-oxoethyl]piperazine] reads > 90%. The same measure, in the same setting: as for `CC(Oc1ccc(Cl)cc1)C(=O)N1CCN(CC(=O)N2CCN(C3CCC3)CC2)CC1` (stereo not shown) [Compound 420, 1-[2-(4-chlorophenoxy)propanoyl]-4-[2-(4-cyclobutylpiperazin-1-yl)-2-oxoethyl]piperazine], the figure is > 90%; as for `COc1ccc(Br)cc1/C=C/C(=O)N1CCN(CC(=O)N2CCN(C3CCC3)CC2)CC1` [Compound 393, 1-[(2E)-3-(5-bromo-2-methoxyphenyl)prop-2-enoyl]-4-[2-(4-cyclobutylpiperazin-1-yl)-2-oxoethyl]piperazine], > 90%.

As to `O=C(Cc1cccc(Cl)c1)N1CCN(CC(=O)N2CCN(C3CCC3)CC2)CC1` [Compound 400, 1-[(3-chlorophenyl)acetyl]-4-[2-(4-cyclobutylpiperazin-1-yl)-2-oxoethyl]piperazine], the inhibition at 4 µM was > 90%. The same measure, in the same setting: as for `COc1cc(Cl)ccc1OCC(=O)N1CCN(CC(=O)N2CCN(C3CCC3)CC2)CC1` [Compound 404, 1-[(4-chloro-2-methoxyphenoxy)acetyl]-4-[2-(4-cyclobutylpiperazin-1-yl)-2-oxoethyl]piperazine], the figure is > 90%; as for `O=C(COc1ccc(Cl)cc1)N1CCN(CC(=O)N2CCN(C3CCC3)CC2)CC1` [Compound 406, 1-[(4-chlorophenoxy)acetyl]-4-[2-(4-cyclobutylpiperazin-1-yl)-2-oxoethyl]piperazine], > 90%.

With `CCCCOc1ccccc1C(=O)N1CCN(CC(=O)N2CCN(C3CCC3)CC2)CC1` [Compound 272, 1-(2-butoxybenzoyl)-4-[2-(4-cyclobutylpiperazin-1-yl)-2-oxoethyl]piperazine], the inhibition at 4 µM was > 90%.
